Patent publication US6451786B1 (Cephalon, Inc., priority 1997, dated 2002)

Columns and labels:
[1] = test system: rat spinal cord motoneurons; experiment: Survival assay using rat spinal cord motoneurons (calcein AM viability); type: cell-based; settings: cultures enriched for motoneurons, survival assessed after 4 days (FIG. 8)
Method: Spinal cords were dissected from Sprague-Dawley rat fetuses (Charles River Laboratories, Wilmington, Mass.) of embryonic age (E) 14.5-15. Cells from only the ventral portion of the spinal cord were dissociated, and further enriched for motoneurons by centrifugation on a 6.5% step metrizamide gradient, and were analyzed for purity by staining with low affinity neurotrophin receptor antibody (IgG-192, Boehringer-Mannheim). Cells were seeded onto 96-well plates previously coated with poly-1-ornithine and laminin (5 ug/ml each) at a density of 6×10^4 cells/cm^2 in chemically defined serum-free N2 medium (Bottenstein and Sato, 1979). To distinguish attachment from survival effects, 3,9-bis[(ethylthio)methyl]-K-252a (Kaneko et. al., J. Med. Chem 40:1863-1869, 1997) was added to cultures after an initial attachment period of 1-3 hours.
Neuronal survival was assessed after 4 days by calcein AM (Molecular Probes, Eugene, Oreg.) in a fluorimetric viability assay (Bozyczko-Coyne et. al., J. Neurosci. Meth. 50:205-216, 1993). […] The fluorescent signal was read using a plate-reading fluorimeter (Cytofluor 2350) (excitation=485 nm; emission=538 nm). […] Linearity of the fluorescence signal was verified for the concentration and incubation time for the range of cell densities. Microscopic counts of neurons correlated directly with relative fluorescence values.

[2] = target: T1, baculovirus-expressed human trkA cytoplasmic domain (Homo sapiens, UniProt P04629); experiment: Inhibition of trkA kinase activity (ELISA-based assay); type: biochemical; settings: 40 μM ATP, read-out: trk IC50
T1 construct: baculovirus-expressed human trkA cytoplasmic domain; made in house; host or cells: baculovirus expression system (insect cells)
T1 sequence (P04629 440-796 limits assumed): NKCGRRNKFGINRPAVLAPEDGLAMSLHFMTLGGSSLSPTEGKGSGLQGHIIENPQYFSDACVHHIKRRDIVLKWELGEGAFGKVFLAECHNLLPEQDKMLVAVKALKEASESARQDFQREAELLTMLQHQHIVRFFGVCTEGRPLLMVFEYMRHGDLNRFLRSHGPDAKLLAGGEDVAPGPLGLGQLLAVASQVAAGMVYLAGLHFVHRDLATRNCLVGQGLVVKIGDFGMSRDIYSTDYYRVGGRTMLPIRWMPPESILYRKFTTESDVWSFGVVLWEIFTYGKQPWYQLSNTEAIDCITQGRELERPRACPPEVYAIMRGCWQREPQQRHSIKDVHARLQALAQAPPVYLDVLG
Method: An antibody to phosphotyrosine (UBI) was then added, followed by a secondary enzyme-conjugated antibody, alkaline phosphatase-labelled goat anti-mouse IgG (Bio-Rad). The activity of the bound enzyme was measured using an amplified detection system (Gibco-BRL). Inhibition data were analyzed using the sigmoidal dose-response (variable slope) equation in GraphPad Prism.

trkA = target: T2, trkA (Homo sapiens, UniProt P04629); type: cell-based; settings: NIH3T3 cells; for inhibition at 0.001 µM: 1 nM compound, read-out: Inhibition Score 1 nM; for inhibition at 0.001 µM / inhibition at 0.01 µM / inhibition at 0.05 µM / inhibition at 0.1 µM: NGF 10 ng/ml, percent decrease in trk protein band; for inhibition at 0.01 µM: 10 nM compound, read-out: Inhibition Score 10 nM; for inhibition at 0.05 µM: 50 nM compound, read-out: Inhibition Score 50 nM; for inhibition at 0.1 µM: 100 nM compound, read-out: Inhibition Score 100 nM
T2 construct: expressed in transfected cells; host or cells: NIH3T3 cells
T2 sequence (P04629 33-796, species assumed): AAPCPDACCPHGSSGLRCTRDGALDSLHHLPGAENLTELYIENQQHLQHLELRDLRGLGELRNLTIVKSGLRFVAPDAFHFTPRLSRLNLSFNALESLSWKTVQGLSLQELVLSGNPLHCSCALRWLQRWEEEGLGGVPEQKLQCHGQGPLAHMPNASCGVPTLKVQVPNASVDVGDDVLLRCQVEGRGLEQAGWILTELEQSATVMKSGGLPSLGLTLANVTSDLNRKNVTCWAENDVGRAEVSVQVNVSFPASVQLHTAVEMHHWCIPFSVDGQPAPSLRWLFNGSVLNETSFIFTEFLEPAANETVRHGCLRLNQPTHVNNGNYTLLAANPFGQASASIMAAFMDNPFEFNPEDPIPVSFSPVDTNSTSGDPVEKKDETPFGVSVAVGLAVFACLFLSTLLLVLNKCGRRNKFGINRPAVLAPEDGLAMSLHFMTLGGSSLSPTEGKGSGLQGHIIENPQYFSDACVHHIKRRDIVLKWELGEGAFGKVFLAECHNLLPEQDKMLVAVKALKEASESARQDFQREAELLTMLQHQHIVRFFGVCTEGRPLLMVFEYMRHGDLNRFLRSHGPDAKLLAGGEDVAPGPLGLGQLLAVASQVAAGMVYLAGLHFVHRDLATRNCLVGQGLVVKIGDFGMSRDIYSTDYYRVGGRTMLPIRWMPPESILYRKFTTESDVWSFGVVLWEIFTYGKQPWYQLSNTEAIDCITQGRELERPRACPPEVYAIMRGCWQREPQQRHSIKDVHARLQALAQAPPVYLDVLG
Method: NIH3T3 cells transfected with trkA were grown in 100 mm dishes. […] NGF (Harlan/Bioproducts for Science) was then added to the cells at a concentration of 10 ng/ml for 5 minutes. Cells were lysed in buffer containing detergent and protease inhibitors. Clarified cell lysates were normalized to protein using BCA method and immunoprecipitated with anti-trk antibody.
The immune complexes were collected on Protein A Sepharose beads (Sigma), separated by SDS polyacrylamide gel electrophoresis (SDS-PAGE), and transferred to a polyvinylidene difluoride (PVDF) membrane. The membrane was immunoblotted with anti-phosphotyrosine antibody (UBI), followed by incubation with horseradish peroxidase coupled goat anti-mouse IgG (Bio-Rad).. Phosphorylated proteins were visualized using ECL (Amersham).
The area of the trk protein band was measured and compared to NGF-stimulated control.

[3] = target: T3, protein kinase C (UBI; mixed isozymes of a, b, g); experiment: Inhibition of protein kinase C activity (Multiscreen TCA in-plate assay); type: biochemical; settings: read-out: PKC IC50
T3 construct: 1.5 ng protein kinase C (UBI)
Method: Assays were performed in 96-well Multiscreen-DP plates (Millipore). […] The reaction was allowed to proceed for 10 min at 37° C. […] The IC50 values were calculated by fitting the data to the sigmoidal dose-response (variable slope) equation in GraphPad Prism.

[4] = test system: dissociated rat embryonic spinal cord culture (ChAT activity); experiment: Enhancement of spinal cord ChAT activity in dissociated rat embryonic spinal cord culture; type: cell-based; settings: ChAT measured after 2 days in vitro
Excerpt: ChAT was employed a biochemical marker for functional cholinergic neurons. CHAT activity has been used to study the effects of neurotrophins (e.g., NGF or NT-3) on the survival and/or function of cholinergic neurons. The ChAT assay also has been used as an indication of the regulation of ChAT levels within cholinergic neurons. […] In these assays, a compound was directly added to a dissociated spinal cord culture. […] Neurochem.

Row | SMILES | IC50 [2] | inhibition at 0.001 µM (trkA) | inhibition at 0.01 µM (trkA) | inhibition at 0.05 µM (trkA) | inhibition at 0.1 µM (trkA) | IC50 [3] | Spinal Cord ChAT % control, Activity at 50 nM [4] | Spinal Cord ChAT % control, Maximal Activity [4] | other results
1 | C[C@]12OC(C[C@@]1(O)C(=O)O)n1c3ccccc3c3c4c(c5c6ccccc6n2c5c31)CNC4=O [Compound XVI] |  |  |  |  |  |  |  |  | survival of spinal cord motoneurons [1]: significantly enhanced survival
2 | C[C@@]1(O)C[C@H]2O[C@]1(C)n1c3ccccc3c3c4c(c5c6ccccc6n2c5c31)C(=O)NC4 [Compound XXIX, reference compound] | 7 nM |  |  |  |  |  |  |  | 
3 | C[C@@]1(O)CC2O[C@]1(C)n1c3ccccc3c3c4c(c5c6ccccc6n2c5c31)C(=O)NC4 [Compound XXIX, reference compound] |  | 26 to 49% | 50 to 75% | 50 to 75% | 50 to 75% | 310 nM |  |  | complete inhibition of trkA at 100 nM (trkA; 100 nM): did not show complete inhibition
4 | C[C@]12OC(C[C@H]1CO)n1c3ccccc3c3c4c(c5c6ccccc6n2c5c31)CNC4=O [Compound VI] | 2 nM |  |  |  |  | 95 nM | <120 % control | 125 % control | 
5 | C[C@@]12C=C[C@@H](O1)n1c3ccccc3c3c4c(c5c6ccccc6n2c5c31)CNC4=O [Compound XXIII] | 4 nM |  |  |  |  | > 1000 nM |  |  | 
6 | COC(=O)[C@]1(O)CC2O[C@]1(C)n1c3ccccc3c3c4c(c5c6ccccc6n2c5c31)C(=O)NC4 [Compound XIV, 3′-(R)-K-252a] |  |  |  |  |  |  | 147 % control | 195 % control | 
7 | C[C@]12OC(C[C@@]1(O)C(N)=O)n1c3ccccc3c3c4c(c5c6ccccc6n2c5c31)CNC4=O [Compound XV] | 21 nM |  |  |  |  |  |  | 129 % control | 
8 | C[C@]12OC(C[C@@]1(O)CO)n1c3ccccc3c3c4c(c5c6ccccc6n2c5c31)CNC4=O [Compound VII] |  | 1 to 25% | 26 to 49% | 76 to 100% | 76 to 100% | 79 nM | <120 % control |  | 
9 | C[C@]1(O)CC2O[C@]1(C)n1c3ccccc3c3c4c(c5c6ccccc6n2c5c31)C(=O)NC4 [Compound X] | 2 nM | 26 to 49% | 50 to 75% | 76 to 100% | 76 to 100% | > 1000 nM | <120 % control | 127 % control | concentration giving complete inhibition of trkA (trkA): < 50 nM; IC50 (trkA; NGF-stimulated, read-out: IC50 for inhibiting trk in a whole cell preparation): < 10 nM
